Test results from US20230265151A1, “GIP/GLP1 CO-AGONIST COMPOUNDS” (priority 2020, published 2023).
Read-outs that look alike come from different tables or passages of the source. *1 amine or outer side, *2 acyl side, *3 side chain or, on linkers, in order; H or OH if unused. Where a SMILES comes first, the peptide text is derived from it. Side-chain parts run from the residue outwards. [ ]: non-standard residue; d: D form. The star is where a group is joined. αMePhe(2-F) = C[C@](N)(Cc1ccccc1F)C(=O)O; γGlu = O=C(O)[C@H](CCC(=O)[*:2])N[*:1]; C14 diacid = O=C(O)CCCCCCCCCCCCC(=O)*; αMeY = C[C@](N)(Cc1ccc(O)cc1)C(=O)O; 4Pal = N[C@@H](Cc1ccncc1)C(=O)O; αMeL = CC(C)C[C@](C)(N)C(=O)O; Orn = NCCC[C@H](N)C(=O)O; AEEA = NCCOCCOCC(=O)O; Aib = CC(C)(N)C(=O)O

Columns and labels:
Format in all cases: cell-based
[1] = biological target: T1, hGCGR (Homo sapiens, UniProt P47871); assay: Functional cAMP formation (HTRF) in HEK-293 clonal cells expressing hGCGR, 0.1% bovine casein, without or with 1.0% human serum albumin
T1 construct: expressed in transfected cells
Outline: (§1)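 Cells were stimulated with peptide for 30 min at 37° C, then intracellular cAMP was measured by competitive HTRF (665/620 nm ratio) and converted to nM using a cAMP standard curve. Relative EC50 and Emax came from four-parameter logistic fits of percent maximal response against peptide concentration.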

[2] = biological target: T2, hGIPR (Homo sapiens, UniProt P48546); assay: Functional cAMP formation (HTRF) in HEK-293 clonal cells expressing hGIPR, 0.1% bovine casein, without or with 1.0% human serum albumin; settings: for EC50: geometric mean
T2 construct: expressed in transfected cells
T2 sequence (P48546 22-466): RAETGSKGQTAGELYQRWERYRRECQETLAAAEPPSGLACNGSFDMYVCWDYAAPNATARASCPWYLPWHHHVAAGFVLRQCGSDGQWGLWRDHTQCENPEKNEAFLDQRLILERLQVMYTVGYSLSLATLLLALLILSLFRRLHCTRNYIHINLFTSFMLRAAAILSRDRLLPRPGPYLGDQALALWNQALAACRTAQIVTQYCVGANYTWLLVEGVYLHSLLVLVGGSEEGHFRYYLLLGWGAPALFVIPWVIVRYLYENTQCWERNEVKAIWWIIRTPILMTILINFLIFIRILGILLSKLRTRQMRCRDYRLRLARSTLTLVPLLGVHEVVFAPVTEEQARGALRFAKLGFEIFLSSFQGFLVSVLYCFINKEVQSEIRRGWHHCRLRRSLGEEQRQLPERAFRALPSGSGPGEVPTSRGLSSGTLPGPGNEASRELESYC
Outline: as §1

[3] = biological target: hGLP-1R (Homo sapiens, UniProt P43220); assay: Functional cAMP formation (HTRF) in HEK-293 clonal cells expressing hGLP-1R, 0.1% bovine casein, without or with 1.0% human serum albumin; set-up: expressed in transfected cells; settings: for EC50: geometric mean; for Emax: read-out: hGLP-1R Emax, % ± SEM
Outline: as §1

[4] = 0.1% bovine casein and 1.0% human serum albumin, 37° C., geometric mean, read-out: hGCGR EC50, nM (SEM, n)
[5] = cAMP, incubated at 37° C., 0.1% bovine casein (no human serum albumin), geometric mean, read-out: hGCGR EC50, nM (SEM, n)
[6] = 0.1% bovine casein and 1.0% human serum albumin, 37° C., read-out: hGIPR EC50, nM (SEM, n)
[7] = HEK293, 0.1% bovine casein and 1.0% human serum albumin, 37° C., percent of maximal response to GIP(1-42)NH2, read-out: hGIPR Emax, % ± SEM
[8] = cAMP, incubated at 37° C., 0.1% bovine casein (no human serum albumin), read-out: hGIPR EC50, nM (SEM, n)
[9] = 0.1% bovine casein and 1.0% human serum albumin, 37° C., read-out: hGLP-1R EC50, nM (SEM, n)
[10] = HEK293, percent of maximal response to GIP(1-42)NH2, 37° C., 0.1% bovine casein, arithmetic mean, read-out: hGIPR Emax, % ± SEM
[11] = HEK293, 0.1% bovine casein and 1.0% human serum albumin, 37° C., percent of maximal response to GLP-1(7-36)NH2
[12] = HEK293, percent of maximal response to GLP-1(7-36)NH2, 37° C., 0.1% bovine casein, arithmetic mean
[13] = cAMP, incubated at 37° C., 0.1% bovine casein (no human serum albumin), read-out: hGLP-1R EC50, nM (SEM, n)

Chain of hGLP-1R (P43220 24-463): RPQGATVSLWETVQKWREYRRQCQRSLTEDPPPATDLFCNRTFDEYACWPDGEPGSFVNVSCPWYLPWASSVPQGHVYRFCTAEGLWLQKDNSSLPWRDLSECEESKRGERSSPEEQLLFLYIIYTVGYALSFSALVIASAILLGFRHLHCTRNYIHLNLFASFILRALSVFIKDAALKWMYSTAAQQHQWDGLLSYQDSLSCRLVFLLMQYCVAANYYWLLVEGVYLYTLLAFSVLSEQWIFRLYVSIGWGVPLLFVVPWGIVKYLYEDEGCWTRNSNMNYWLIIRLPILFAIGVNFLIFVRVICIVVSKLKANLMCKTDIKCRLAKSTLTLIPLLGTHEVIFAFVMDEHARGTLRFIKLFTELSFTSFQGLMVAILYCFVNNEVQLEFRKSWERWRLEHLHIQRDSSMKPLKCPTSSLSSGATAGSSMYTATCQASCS
T1 sequence (P47871 26-477): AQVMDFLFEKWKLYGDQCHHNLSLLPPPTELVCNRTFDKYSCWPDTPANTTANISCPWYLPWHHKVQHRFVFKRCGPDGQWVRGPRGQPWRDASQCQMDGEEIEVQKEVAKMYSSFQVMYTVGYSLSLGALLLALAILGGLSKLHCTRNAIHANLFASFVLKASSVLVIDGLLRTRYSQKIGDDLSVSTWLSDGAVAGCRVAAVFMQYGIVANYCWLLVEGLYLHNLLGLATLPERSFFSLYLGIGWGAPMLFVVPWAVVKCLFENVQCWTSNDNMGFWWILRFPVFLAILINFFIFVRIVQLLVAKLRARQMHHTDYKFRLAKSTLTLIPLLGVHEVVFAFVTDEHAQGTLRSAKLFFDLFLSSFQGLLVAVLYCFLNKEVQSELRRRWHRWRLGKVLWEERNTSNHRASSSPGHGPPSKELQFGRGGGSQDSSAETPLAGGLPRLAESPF

## CC[C@H](C)[C@H](NC(=O)[C@H](CC(C)C)NC(=O)[C@](C)(Cc1ccc(O)cc1)NC(=O)[C@@H](CCC(=O)O)NC(=O)[C@@H](NC(=O)[C@H](Cc1ccccc1)NC(=O)[C@H](CCC(=O)O)NC(=O)C(C)(C)NC(=O)[C@H](CCC(N)=O)NC(=O)[C@H](C)NC(=O)[C@H](CCCCNC(=O)COCCOCCNC(=O)CC[C@H](NC(=O)CCCCCCCCCOc1ccc(C(=O)O)cc1)C(=O)O)NC(=O)[C@H](CCCN)NC(=O)[C@H](CC(=O)O)NC(=O)[C@H](CC(C)C)NC(=O)[C@](C)(CC(C)C)NC(=O)[C@@H](NC(=O)C(C)(C)NC(=O)[C@H](Cc1ccc(O)cc1)NC(=O)[C@H](CC(=O)O)NC(=O)[C@H](CO)NC(=O)[C@@H](NC(=O)[C@](C)(Cc1ccccc1F)NC(=O)[C@@H](NC(=O)CNC(=O)[C@H](CCC(=O)O)NC(=O)C(C)(C)NC(=O)[C@@H](N)Cc1ccc(O)cc1)[C@@H](C)O)[C@@H](C)O)[C@@H](C)CC)[C@@H](C)CC)C(=O)N[C@@H](CCC(=O)O)C(=O)NCC(=O)NCC(=O)N1CCC[C@H]1C(=O)N[C@@H](CO)C(=O)N[C@@H](CO)C(=O)NCC(=O)N[C@@H](C)C(=O)N1CCC[C@H]1C(=O)N1CCC[C@H]1C(=O)N1CCC[C@H]1C(=O)N[C@@H](CO)C(=O)N[C@@H](CCCCNC(=O)COCCOCCNC(=O)CC[C@H](NC(=O)CCCCCCCCCOc1ccc(C(=O)O)cc1)C(=O)O)C(N)=O [Example 374]
[1]; hGCGR EC50, nM (SEM, n), cAMP, 37° C., 0.1% bovine casein (no human serum albumin), geometric mean
  EC50: > 9950 nM
[1]; hGCGR EC50, nM (SEM, n), cAMP, 37° C., 0.1% bovine casein and 1.0% human serum albumin, geometric mean (SEM, n)
  EC50: > 9950 nM
[2]; HEK293, read-out: hGIPR Emax, % ± SEM, cAMP, 37° C., 0.1% bovine casein and 1.0% human serum albumin, percent of maximal response to GIP(1-42)NH2
  Emax: 88.8%
[2]; HEK293, read-out: hGIPR Emax, % ± SEM, cAMP, 37° C., 0.1% bovine casein, percent of maximal response to GIP(1-42)NH2, arithmetic mean
  Emax: 96.2%
[2]; hGIPR EC50, nM (SEM, n), cAMP, 37° C., 0.1% bovine casein (no human serum albumin)
  EC50: 0.0135 nM
[3]; hGLP-1R EC50, nM (SEM, n), cAMP, 37° C., 0.1% bovine casein (no human serum albumin)
  EC50: 0.269 nM

## CC[C@H](C)[C@H](NC(=O)[C@H](CC(C)C)NC(=O)[C@](C)(Cc1ccc(O)cc1)NC(=O)[C@@H](CCC(=O)O)NC(=O)[C@@H](NC(=O)[C@H](Cc1ccccc1)NC(=O)[C@H](CCC(=O)O)NC(=O)C(C)(C)NC(=O)[C@H](CCC(N)=O)NC(=O)[C@H](C)NC(=O)[C@H](CCCCNC(=O)COCCOCCNC(=O)COCCOCCNC(=O)CC[C@H](NC(=O)CCCc1ccc(C(C)(C)C)cc1)C(=O)O)NC(=O)[C@H](CCCN)NC(=O)[C@H](CC(=O)O)NC(=O)[C@H](CC(C)C)NC(=O)[C@](C)(CC(C)C)NC(=O)[C@@H](NC(=O)[C@H](CO)NC(=O)[C@H](Cc1ccncc1)NC(=O)[C@H](CC(=O)O)NC(=O)[C@H](CO)NC(=O)[C@@H](NC(=O)[C@](C)(Cc1ccccc1F)NC(=O)[C@@H](NC(=O)CNC(=O)[C@H](CCC(=O)O)NC(=O)C(C)(C)NC(=O)[C@@H](N)Cc1ccc(O)cc1)[C@@H](C)O)[C@@H](C)O)[C@@H](C)CC)[C@@H](C)CC)C(=O)N[C@@H](CCCCNC(=O)COCCOCCNC(=O)COCCOCCNC(=O)CC[C@H](NC(=O)CCCc1ccc(C(C)(C)C)cc1)C(=O)O)C(=O)NCC(=O)NCC(=O)N1CCC[C@H]1C(=O)N[C@@H](CO)C(=O)N[C@@H](CO)C(=O)NCC(=O)N[C@@H](C)C(=O)N1CCC[C@H]1C(=O)N1CCC[C@H]1C(=O)N1CCC[C@H]1C(=O)N[C@@H](CO)C(N)=O [Example 133]
[1]; [4]
  EC50: > 9950 nM
[1]; [5]
  EC50: > 9950 nM
[2]; [6]
  EC50: 0.0695 nM
[2]; [7]
  Emax: 89.1 ± 4.64%
[2]; [8]
  EC50: 0.018 nM
[3]; [9]
  EC50: 1.17 nM

## CC[C@H](C)[C@H](NC(=O)[C@H](CCCN)NC(=O)[C@H](CC(=O)O)NC(=O)[C@H](CC(C)C)NC(=O)[C@](C)(CC(C)C)NC(=O)[C@@H](NC(=O)[C@H](CO)NC(=O)[C@H](Cc1ccncc1)NC(=O)[C@H](CC(=O)O)NC(=O)[C@H](CO)NC(=O)[C@@H](NC(=O)[C@](C)(Cc1ccccc1F)NC(=O)[C@@H](NC(=O)CNC(=O)[C@H](CCC(=O)O)NC(=O)C(C)(C)NC(=O)[C@@H](N)Cc1ccc(O)cc1)[C@@H](C)O)[C@@H](C)O)[C@@H](C)CC)C(=O)N[C@@H](C)C(=O)N[C@@H](CCC(N)=O)C(=O)NC(C)(C)C(=O)N[C@@H](CCCCNC(=O)COCCOCCNC(=O)COCCOCCNC(=O)CCCCCCCCCCCCC(=O)O)C(=O)N[C@@H](Cc1ccccc1)C(=O)N[C@H](C(=O)N[C@H](CCC(=O)O)C(=O)N[C@@](C)(Cc1ccc(O)cc1)C(=O)N[C@@H](CC(C)C)C(=O)N[C@H](C(=O)N[C@@H](CCCCNC(=O)COCCOCCNC(=O)COCCOCCNC(=O)CCCCCCCCCCCCC(=O)O)C(=O)NCC(=O)NCC(=O)N1CCC[C@H]1C(=O)N[C@@H](CO)C(=O)N[C@@H](CO)C(=O)NCC(=O)N[C@@H](C)C(=O)N1CCC[C@H]1C(=O)N1CCC[C@H]1C(=O)N1CCC[C@H]1C(=O)N[C@@H](CO)C(N)=O)[C@@H](C)CC)[C@@H](C)CC [Example 222]
[1]; [4]
  EC50: > 9950 nM
[1]; [5]
  EC50: > 9950 nM
[2]; [7]
  Emax: 77.9%
[2]; [10]
  Emax: 98.7%
[2]; [8]
  EC50: 0.0195 nM
[3]; [11]
  Emax: 117%
[3]; [12]
  Emax: 91.6%
[3]; [13]
  EC50: 0.518 nM

## CC[C@H](C)[C@H](NC(=O)[C@H](CC(C)C)NC(=O)[C@](C)(Cc1ccc(O)cc1)NC(=O)[C@@H](CCC(=O)O)NC(=O)[C@@H](NC(=O)[C@H](Cc1ccccc1)NC(=O)[C@H](CCC(=O)O)NC(=O)C(C)(C)NC(=O)[C@H](CCC(N)=O)NC(=O)[C@H](C)NC(=O)[C@H](CCCCNC(=O)COCCOCCNC(=O)COCCOCCNC(=O)CC[C@H](NC(=O)CCCCCCCCCCCCC(=O)O)C(=O)O)NC(=O)[C@H](CCCN)NC(=O)[C@H](CC(=O)O)NC(=O)[C@H](CC(C)C)NC(=O)[C@](C)(CC(C)C)NC(=O)[C@@H](NC(=O)[C@H](CO)NC(=O)[C@H](Cc1ccncc1)NC(=O)[C@H](CC(=O)O)NC(=O)[C@H](CO)NC(=O)[C@@H](NC(=O)[C@](C)(Cc1ccccc1F)NC(=O)[C@@H](NC(=O)CNC(=O)[C@H](CCC(=O)O)NC(=O)C(C)(C)NC(=O)[C@@H](N)Cc1ccc(O)cc1)[C@@H](C)O)[C@@H](C)O)[C@@H](C)CC)[C@@H](C)CC)C(=O)N[C@@H](CCC(=O)O)C(=O)NCC(=O)NCC(=O)N[C@@H](CCCCNC(=O)COCCOCCNC(=O)COCCOCCNC(=O)CC[C@H](NC(=O)CCCCCCCCCCCCC(=O)O)C(=O)O)C(=O)N[C@@H](CO)C(=O)N[C@@H](CO)C(=O)NCC(N)=O [Example 183] (H-Y[Aib]EGT[αMePhe(2-F)]TSD[4Pal]SI[αMeL]LD[Orn]K([AEEA-AEEA-γGlu-C14 diacid])AQ[Aib]EFI[dE][αMeY]LIEGGK([AEEA-AEEA-γGlu-C14 diacid])SSG-NH2)
[1]; [4]
  EC50: > 9950 nM
[1]; [5]
  EC50: > 9950 nM
[2]; [6]
  EC50: 1.22 nM
[2]; [7]
  Emax: 75.5%
[2]; [10]
  Emax: 93.5 ± 1.46%
[2]; [8]
  EC50: 0.0326 nM
[3]; [9]
  EC50: 66.6 nM
[3]; [11]
  Emax: 97.3%
[3]; [12]
  Emax: 93.9 ± 4.99%
[3]; [13]
  EC50: 1.37 nM
